Results reported in patent US12637425B2, “Compounds and formulations for treating ophthalmic diseases” (Visus Therapeutics, Inc., priority 2020, dated 2026).

Molecular target: T1, Recombinant cryAB(R120G) protein (Homo sapiens, UniProt P02511, R120G)
T1 sequence (P02511 1-175 R120G): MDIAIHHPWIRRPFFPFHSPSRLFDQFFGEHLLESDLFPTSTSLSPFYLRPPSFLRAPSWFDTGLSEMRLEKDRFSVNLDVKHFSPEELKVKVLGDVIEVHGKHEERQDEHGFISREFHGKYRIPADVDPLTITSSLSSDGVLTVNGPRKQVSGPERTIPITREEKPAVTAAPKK
Assay: Kinetic turbidity aggregation assay of recombinant cryAB(R120G)
Type: biochemical
Settings: for inhibition at 25 µM: read-out: % Inhibition of Protein Aggregation, 25 μM cmpd; for inhibition at 100 µM: read-out: % Inhibition of Protein Aggregation, 100 μM cmpd; for inhibition at 400 µM: 400 μM compound, read-out: % Inhibition of Protein Aggregation, 400 μM cmpd; for IC50: inhibition of cryAB(R120G) protein aggregation
Experimental: Example A-1: Kinetic Turbidity Aggregation Assay of Recombinant cryAB(R120)
Recombinant cryAB(R120G) protein was diluted to 100 μM in assay buffer (50 mM Tris, 100 mM NaCl, 5 mM DTT, 0.01% Triton X-100, 0.05% PEG-8000). Compounds were dissolved in DMSO at 10 mM then typically diluted to 2.5 mM in DMSO and serially diluted 2-fold as necessary. To a 384-well black microplate in quadruplicate was added 81 μL assay buffer, followed by 15 μL protein solution, and 4 μL compound to give a final concentration of 15 μM cryAB(R120G) protein in 4% DMSO. […] N.D. is not determined.

[1] = 25 μM compound, 15 μM cryAB(R120G), 42° C., absorbance at 550 nm
[2] = 100 μM compound, 15 μM cryAB(R120G), 42° C., absorbance at 550 nm
[3] = 15 μM cryAB(R120G), 42° C., absorbance at 550 nm

Compound	inhibition at 25 µM [1] [%]	inhibition at 100 µM [2] [%]	inhibition at 400 µM [3] [%]	IC50 [µM]	% Inhibition of Protein Aggregation, 25 μM cmpd [1] [%]	% Inhibition of Protein Aggregation, 100 μM cmpd [2] [%]
Cn1cc([C@H](CNS(=O)(=O)c2ccc3cc[nH]c3c2)NCc2cncs2)c2ccccc21 [Compound 85, (R)-N-(2-(1-methyl-1H-indol-3-yl)-2-((thiazol-5-ylmethyl)amino)ethyl)-1H-indole-6-sulfonamide]	37	84.4				
Cn1cc([C@@H](CNS(=O)(=O)c2ccc3cc[nH]c3c2)N2CCC2)c2ccccc21 [Compound 101, (S)-N-(2-(azetidin-1-yl)-2-(1-methyl-1H-indol-3-yl)ethyl)-1H-indole-6-sulfonamide]	63	97.6				
CN(C)C(CNS(=O)(=O)c1ccc2cc[nH]c2c1)c1cccc2cccnc12 (centres unmarked) [Compound 57, N-(2-(dimethylamino)-2-(quinolin-8-yl)ethyl)-1H-indole-6-sulfonamide]	25	82.4				
C[C@H]1CCCN1[C@@H](CNS(=O)(=O)c1ccc2cc[nH]c2c1)c1cn(C)c2ccccc12 [Compound 65, N-((R)-2-(1-methyl-1H-indol-3-yl)-2-((S)-2-methylpyrrolidin-1-yl)ethyl)-1H-indole-6-sulfonamide]	93	99.7				
CN(C)C(CNS(=O)(=O)c1ccc2cc[nH]c2c1)c1nn(C)c2ccccc12 (centres unmarked) [Compound 19, N-(2-(dimethylamino)-2-(1-methyl-1H-indazol-3-yl)ethyl)-1H-indole-6-sulfonamide]	34	81.5	99.9	10 to 50		
Cn1cc(C(CNS(=O)(=O)c2ccc3cc[nH]c3c2)N2CCCC2)c2ncccc21 (centres unmarked) [Compound 54, N-(2-(1-methyl-1H-pyrrolo[3,2-b]pyridin-3-yl)-2-(pyrrolidin-1-yl)ethyl)-1H-indole-6-sulfonamide]	-41	66				
CN(C)C(CNS(=O)(=O)c1ccc2cc[nH]c2c1)c1cccc2ncccc12 (centres unmarked) [Compound 17, N-(2-(dimethylamino)-2-(quinolin-5-yl)ethyl)-1H-indole-6-sulfonamide]	-10.7	-13	63.5			
O=S(=O)(NC[C@@H](c1cnc2ccccn12)N1CCCC1)c1ccc2cc[nH]c2c1 [Compound 79, (S)-N-(2-(imidazo[1,2-a]pyridin-3-yl)-2-(pyrrolidin-1-yl)ethyl)-1H-indole-6-sulfonamide]	8	98.7				
Cn1cc([C@H](CNS(=O)(=O)c2ccc3cc[nH]c3c2)N2CCCC2)c2cnccc21 [Compound 81, (R)-N-(2-(1-methyl-1H-pyrrolo[3,2-c]pyridin-3-yl)-2-(pyrrolidin-1-yl)ethyl)-1H-indole-6-sulfonamide]	-12	23				
CN(C)C(CNS(=O)(=O)c1ccc2cc[nH]c2c1)c1ccc2cc[nH]c2n1 (centres unmarked) [Compound 15, N-(2-(dimethylamino)-2-(1H-pyrrolo[2,3-b]pyridin-6-yl)ethyl)-1H-indole-6-sulfonamide]	50	85.8	67.6			
CC(C)n1cc(C(CNS(=O)(=O)c2ccc3[nH]ccc3c2)N(C)C)c2ccccc21 (centres unmarked) [Compound 12, N-(2-(dimethylamino)-2-(1-isopropyl-1H-indol-3-yl)ethyl)-1H-indole-5-sulfonamide]	30	87.1	96.1			
Cn1cc(C(CNS(=O)(=O)c2ccc3cc[nH]c3c2)N2C[C@H]3COC[C@H]3C2)c2ccccc21 (stereo in doubt) [Compound 31, N-(2-(1-methyl-1H-indol-3-yl)-2-(trans-tetrahydro-1H-furo[3,4-c]pyrrol-5(3H)-yl)ethyl)-1H-indole-6-sulfonamide]	23	70				
Cn1cc(C(CNS(=O)(=O)c2ccc3cc[nH]c3c2)N2CC[C@H](O)C2)c2ccccc21 (stereo partly drawn) [Compound 43, N-(2-((S)-3-hydroxypyrrolidin-1-yl)-2-(1-methyl-1H-indol-3-yl)ethyl)-1H-indole-6-sulfonamide]	20	98.6				

More lines, now with the values ahead:

inhibition at 25 µM [1] [%]	inhibition at 100 µM [2] [%]	inhibition at 400 µM [3] [%]	IC50 [µM]	% Inhibition of Protein Aggregation, 25 μM cmpd [1] [%]	% Inhibition of Protein Aggregation, 100 μM cmpd [2] [%]	Compound
-8	66.7					Cn1cc([C@@H](CNS(=O)(=O)c2ccc3cc[nH]c3c2)N2CC[C@@H](c3ccccc3)C2)c2ccccc21 [Compound 58, N-((S)-2-(1-methyl-1H-indol-3-yl)-2-((S)-3-phenylpyrrolidin-1-yl)ethyl)-1H-indole-6-sulfonamide]
57	99	95.9				CN(C)C(CNS(=O)(=O)c1ccc2cc[nH]c2c1)c1c[nH]c2ccccc12 (centres unmarked) [Compound 22, N-(2-(dimethylamino)-2-(1H-indol-3-yl)ethyl)-1H-indole-6-sulfonamide]
58	83.7	99.1				CN(C)C(CNS(=O)(=O)c1ccc2cc[nH]c2c1)c1ccc2[nH]ncc2c1 (centres unmarked) [Compound 3, N-(2-(dimethylamino)-2-(1H-indazol-5-yl)ethyl)-1H-indole-6-sulfonamide]
-6	32.7	94.7				CC(C)n1cc(C(CNS(=O)(=O)c2cccc3[nH]ccc23)N(C)C)c2ccccc21 (centres unmarked) [Compound 13, N-(2-(dimethylamino)-2-(1-isopropyl-1H-indol-3-yl)ethyl)-1H-indole-4-sulfonamide]
23	76.9					C[C@H]1CCCN1C(CNS(=O)(=O)c1ccc2cc[nH]c2c1)c1cn(C)c2ccccc12 (some centres unmarked) [Compound 48]
-45	58.8					COc1ccc2[nH]ccc2c1S(=O)(=O)NCC(c1cn(C)c2ccccc12)N(C)C (centres unmarked) [Compound 97, N-(2-(dimethylamino)-2-(1-methyl-1H-indol-3-yl)ethyl)-5-methoxy-1H-indole-4-sulfonamide]
33	99.6		50 to 100			C[C@@H]1CCCN1[C@@H](CNS(=O)(=O)c1ccc2cc[nH]c2c1)c1cn(C)c2ccccc12 [Compound 55, N-((R)-2-(1-methyl-1H-indol-3-yl)-2-((R)-2-methylpyrrolidin-1-yl)ethyl)-1H-indole-6-sulfonamide]
9	95.4					C[C@H]1CCCN1[C@H](CNS(=O)(=O)c1ccc2cc[nH]c2c1)c1cn(C)c2ccccc12 [Compound 64, N-((S)-2-(1-methyl-1H-indol-3-yl)-2-((S)-2-methylpyrrolidin-1-yl)ethyl)-1H-indole-6-sulfonamide]
32	86.9					COC1CCN(C(CNS(=O)(=O)c2ccc3cc[nH]c3c2)c2cn(C)c3ccccc23)CC1 (centres unmarked) [Compound 47, N-(2-(4-methoxypiperidin-1-yl)-2-(1-methyl-1H-indol-3-yl)ethyl)-1H-indole-6-sulfonamide]
92.9	99.1					Cn1nc([C@@H](CNS(=O)(=O)c2ccc3cc[nH]c3c2)N2CCC2)c2ccccc21 [Compound 98, (R)-N-(2-(azetidin-1-yl)-2-(1-methyl-1H-indazol-3-yl)ethyl)-1H-indole-6-sulfonamide]
60	58.8					COc1cc2cc[nH]c2cc1S(=O)(=O)NCC(c1cn(C)c2ccccc12)N(C)C (centres unmarked) [Compound 96, N-(2-(dimethylamino)-2-(1-methyl-1H-indol-3-yl)ethyl)-5-methoxy-1H-indole-6-sulfonamide]
27	82.8					Cn1ccc2ccc(S(=O)(=O)NCC(c3cn(C)c4ccccc34)N3CCCC3)cc21 (centres unmarked) [Compound 33, 1-methyl-N-(2-(1-methyl-1H-indol-3-yl)-2-(pyrrolidin-1-yl)ethyl)-1H-indole-6-sulfonamide]
				7	98.5	Cn1cc(C(CNS(=O)(=O)c2cccc3[nH]ccc23)N2CCCC2)c2ccccc21 (centres unmarked) [Compound 28, N-(2-(1-methyl-1H-indol-3-yl)-2-(pyrrolidin-1-yl)ethyl)-1H-indole-4-sulfonamide]
19.5	-38	18.8				CN(C)C(CNS(=O)(=O)c1ccc2nc[nH]c2c1)c1cn(C)c2ccccc12 (centres unmarked) [Compound 6, N-(2-(dimethylamino)-2-(1-methyl-1H-indol-3-yl)ethyl)-1H-benzo[d]imidazole-6-sulfonamide]
80	94.1					CN(Cc1cncs1)[C@H](CNS(=O)(=O)c1ccc2cc[nH]c2c1)c1cn(C)c2ccccc12 [Compound 86, (S)-N-(2-(methyl(thiazol-5-ylmethyl)amino)-2-(1-methyl-1H-indol-3-yl)ethyl)-1H-indole-6-sulfonamide]
59	99.7					CC1CN(C(CNS(=O)(=O)c2ccc3cc[nH]c3c2)c2cn(C)c3ccccc23)C1 (centres unmarked) [Compound 103, N-(2-(1-methyl-1H-indol-3-yl)-2-(3-methylazetidin-1-yl)ethyl)-1H-indole-6-sulfonamide]
